# Values quoted from earlier work, collected in PMC2643498 (The Journal of Biological Chemistry, 2009).
# How the values were obtained:
# AtCCD1 = conditions: 100 μM
# AtNCED3 = conditions: 100 μM
# recombinant NCED = conditions: read-out: Ki (NCED)
substance,measurement,setting,value
abamineSG,inhibition of AtCCD1,AtCCD1,≤ 20%
same,inhibition of AtNCED3,AtNCED3,78%
same,Ki,recombinant NCED,18.5 µM
